This passage reports IC50 and inhibition results from US20220151962A1, “NOVEL INHIBITORS OF HISTONE DEACETYLASE 10” (Deutsches Krebsforschungszentrum, priority 2019, published 2022).

“And” between values parts separate entries of the source, which are not always exact repeats. Equal values may be shown once.

As a reminder, the IC50 is the midpoint of a concentration-inhibition curve. For orientation: inhibition means the change of the read-out against control, counted positive when it falls.

The target in one test is T1, TwinStrep-GST-HDAC10 (Homo sapiens, UniProt Q969S8).
T1 construct: made in house; host or cells: Sf21 insect cells (baculovirus, pFastBac1)
T1 sequence (Q969S8 1-669): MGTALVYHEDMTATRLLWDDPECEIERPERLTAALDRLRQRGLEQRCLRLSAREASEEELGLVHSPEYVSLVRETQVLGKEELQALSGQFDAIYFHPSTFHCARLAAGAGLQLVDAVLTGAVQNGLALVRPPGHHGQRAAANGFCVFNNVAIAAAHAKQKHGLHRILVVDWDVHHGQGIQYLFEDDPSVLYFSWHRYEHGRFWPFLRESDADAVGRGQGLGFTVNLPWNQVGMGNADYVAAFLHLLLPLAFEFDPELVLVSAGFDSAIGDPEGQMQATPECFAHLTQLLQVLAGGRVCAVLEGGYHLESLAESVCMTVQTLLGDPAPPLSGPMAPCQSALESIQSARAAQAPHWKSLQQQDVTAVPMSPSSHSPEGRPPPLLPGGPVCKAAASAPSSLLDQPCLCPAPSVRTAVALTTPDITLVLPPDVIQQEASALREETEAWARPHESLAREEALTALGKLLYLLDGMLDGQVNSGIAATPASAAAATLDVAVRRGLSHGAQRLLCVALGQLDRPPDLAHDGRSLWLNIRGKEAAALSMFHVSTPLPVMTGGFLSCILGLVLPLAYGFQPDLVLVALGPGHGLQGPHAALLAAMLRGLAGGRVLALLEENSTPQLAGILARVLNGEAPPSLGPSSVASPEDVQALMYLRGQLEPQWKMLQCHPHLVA
Briefly: HDAC10 TR-FRET assay (Tubastatin-AF647-Tracer displacement). It is filed as binding. The settings on record: two separate measurements, each made in triplicate; read-out: HDAC10 FRET IC50.

In the next test the target is T2, HDAC1 (Homo sapiens, UniProt Q13547).
T2 construct: purchased BPS Bioscience 50051
T2 sequence (Q13547 whole entry): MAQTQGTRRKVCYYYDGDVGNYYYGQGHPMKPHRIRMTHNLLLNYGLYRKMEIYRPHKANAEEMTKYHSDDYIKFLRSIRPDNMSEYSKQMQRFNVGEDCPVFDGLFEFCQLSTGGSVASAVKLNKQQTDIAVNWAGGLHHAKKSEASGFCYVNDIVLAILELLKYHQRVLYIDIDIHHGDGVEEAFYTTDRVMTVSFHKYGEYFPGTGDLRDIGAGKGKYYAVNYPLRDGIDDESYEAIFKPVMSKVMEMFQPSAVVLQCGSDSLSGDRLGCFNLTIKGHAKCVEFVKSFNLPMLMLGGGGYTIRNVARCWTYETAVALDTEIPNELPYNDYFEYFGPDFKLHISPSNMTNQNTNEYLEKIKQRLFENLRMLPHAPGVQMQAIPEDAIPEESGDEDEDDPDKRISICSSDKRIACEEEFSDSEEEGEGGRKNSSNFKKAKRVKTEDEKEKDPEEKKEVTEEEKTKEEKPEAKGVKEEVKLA
Kind of test: HDAC1 (ZMAL) fluorogenic activity assay. It is filed as biochemical. The settings on record: read-out: HDAC1 (ZMAL) percent enzyme inhibition.

For another test, the target named is T3, HDAC6 (Homo sapiens, UniProt Q9UBN7).
T3 construct: purchased BPS Bioscience 50006
T3 sequence (Q9UBN7 1-1215): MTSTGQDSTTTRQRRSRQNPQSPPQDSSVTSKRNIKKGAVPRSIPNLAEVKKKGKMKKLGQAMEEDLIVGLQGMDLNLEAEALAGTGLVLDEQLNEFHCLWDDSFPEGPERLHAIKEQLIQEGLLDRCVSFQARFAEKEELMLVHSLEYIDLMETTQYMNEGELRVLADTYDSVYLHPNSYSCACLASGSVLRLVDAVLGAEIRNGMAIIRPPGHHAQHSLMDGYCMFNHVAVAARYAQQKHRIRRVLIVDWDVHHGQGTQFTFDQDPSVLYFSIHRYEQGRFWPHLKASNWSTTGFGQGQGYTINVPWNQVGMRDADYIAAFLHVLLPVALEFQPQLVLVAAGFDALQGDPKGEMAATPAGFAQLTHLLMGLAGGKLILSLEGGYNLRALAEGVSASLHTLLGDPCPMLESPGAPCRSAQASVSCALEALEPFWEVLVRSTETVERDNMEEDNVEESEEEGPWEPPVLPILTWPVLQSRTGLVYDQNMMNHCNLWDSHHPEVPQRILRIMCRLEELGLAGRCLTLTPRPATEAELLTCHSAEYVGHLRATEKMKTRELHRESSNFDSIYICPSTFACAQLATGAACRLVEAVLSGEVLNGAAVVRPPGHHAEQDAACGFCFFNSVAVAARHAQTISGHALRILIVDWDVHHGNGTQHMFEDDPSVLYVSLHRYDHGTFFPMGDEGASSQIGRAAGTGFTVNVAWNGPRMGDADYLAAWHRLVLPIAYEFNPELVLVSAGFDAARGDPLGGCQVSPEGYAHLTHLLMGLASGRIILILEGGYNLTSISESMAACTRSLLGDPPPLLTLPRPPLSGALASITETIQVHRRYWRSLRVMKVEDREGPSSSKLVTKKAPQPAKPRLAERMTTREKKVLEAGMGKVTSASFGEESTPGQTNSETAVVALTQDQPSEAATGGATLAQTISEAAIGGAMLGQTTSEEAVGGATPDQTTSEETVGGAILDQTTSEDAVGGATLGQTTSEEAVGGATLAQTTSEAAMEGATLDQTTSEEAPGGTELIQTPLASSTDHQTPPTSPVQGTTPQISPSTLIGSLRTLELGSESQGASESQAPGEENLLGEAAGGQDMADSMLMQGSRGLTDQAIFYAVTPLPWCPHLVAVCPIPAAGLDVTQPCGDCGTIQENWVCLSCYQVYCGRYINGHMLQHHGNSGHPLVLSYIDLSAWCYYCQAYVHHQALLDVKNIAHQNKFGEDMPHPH
Briefly: HDAC6 (ZMAL) fluorogenic activity assay. Format: biochemical.

Another test addresses T4, zebrafish HDAC10 (Danio rerio, UniProt F1QCV2).
T4 sequence (F1QCV2 1-675): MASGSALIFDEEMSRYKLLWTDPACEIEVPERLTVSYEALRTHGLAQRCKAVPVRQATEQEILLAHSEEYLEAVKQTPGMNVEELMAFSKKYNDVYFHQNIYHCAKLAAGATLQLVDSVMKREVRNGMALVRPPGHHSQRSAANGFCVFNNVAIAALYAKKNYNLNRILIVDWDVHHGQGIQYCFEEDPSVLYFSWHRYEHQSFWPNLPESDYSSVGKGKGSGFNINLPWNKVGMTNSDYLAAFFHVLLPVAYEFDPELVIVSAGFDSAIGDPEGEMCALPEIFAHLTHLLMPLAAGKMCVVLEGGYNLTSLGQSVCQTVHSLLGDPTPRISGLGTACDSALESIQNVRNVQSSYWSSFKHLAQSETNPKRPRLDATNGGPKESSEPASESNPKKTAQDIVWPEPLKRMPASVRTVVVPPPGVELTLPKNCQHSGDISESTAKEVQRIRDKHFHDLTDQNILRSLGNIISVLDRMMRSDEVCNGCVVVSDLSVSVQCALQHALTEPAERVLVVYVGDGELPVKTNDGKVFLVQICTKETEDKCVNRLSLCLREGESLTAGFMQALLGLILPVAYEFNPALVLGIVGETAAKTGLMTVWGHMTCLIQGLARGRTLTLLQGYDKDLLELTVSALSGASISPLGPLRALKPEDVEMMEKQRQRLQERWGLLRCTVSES
Kind of test: Zebrafish HDAC10 assay (zHDAC10), Ac-spermidine-AMC substrate. It is filed as biochemical. The settings on record: for inhibition at 0.1 µM / inhibition at 1 µM / inhibition at 10 µM: read-out: zHDAC10 percent enzyme inhibition.

Another test has as its target T5, HDAC8 (Homo sapiens, UniProt Q9BY41).
T5 sequence (Q9BY41 1-377): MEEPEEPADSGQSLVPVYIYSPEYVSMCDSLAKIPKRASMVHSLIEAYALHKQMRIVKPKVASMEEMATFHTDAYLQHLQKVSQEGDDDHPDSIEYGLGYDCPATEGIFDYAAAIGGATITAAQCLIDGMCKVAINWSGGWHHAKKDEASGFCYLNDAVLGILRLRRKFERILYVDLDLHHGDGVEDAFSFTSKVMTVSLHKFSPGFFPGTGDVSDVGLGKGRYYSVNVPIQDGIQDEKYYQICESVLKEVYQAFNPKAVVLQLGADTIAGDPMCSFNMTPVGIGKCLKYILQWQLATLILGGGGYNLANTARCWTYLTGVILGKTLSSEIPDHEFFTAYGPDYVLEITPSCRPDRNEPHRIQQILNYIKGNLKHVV
Briefly: HDAC8 (FDL) Fluor de Lys assay. Format: biochemical. As to conditions: for inhibition at 1 µM / inhibition at 10 µM: read-out: HDAC8 (FDL) percent enzyme inhibition. Further details: obtained from C; Romier (academic laboratory, not a vendor).

Test [1] deals with T6, HDAC10-nanoluciferase fusion in HeLa cells (Homo sapiens, UniProt Q969S8).
T6 sequence (Q969S8 1-669): T1 sequence (Q969S8 1-669)
Kind of test: BRET intracellular target engagement assay, HDAC10. For orientation: BRET reads energy transfer from a luciferase to a nearby fluorophore.

[2] abbreviates: read-out: HDAC6 (ZMAL) percent enzyme inhibition.

For the compound `O=C(NO)C1CCN(CCc2ccccc2)CC1` [DH22, N-Hydroxy-1-phenethylpiperidine-4-carboxamide], the IC50 on TwinStrep-GST-HDAC10 is 175 nM and 260 nM. The inhibition at 1 µM on HDAC1 is -1%; at HDAC6 (setting [2]), -2%; at zebrafish HDAC10 it was 20%; at HDAC8, 27%. For the same compound, the inhibition at 10 µM is 7% at HDAC1, 17% on HDAC6 (setting [2]), 80% at zebrafish HDAC10 and 56% at HDAC8. In addition, the inhibition at 0.1 µM at zebrafish HDAC10 is 13%.
`O=C(NO)C1CCN(Cc2ccccc2)CC1` [DH25, 1-Benzyl-N-hydroxypiperidine-4-carboxamide]: the IC50 at TwinStrep-GST-HDAC10 is 2450 nM and 3430 nM. For the same compound, the inhibition at 1 µM at HDAC1 was 8%; at HDAC6 (setting [2]) it was 22%; on zebrafish HDAC10 it was 15%; on HDAC8, 36%. Moreover, the inhibition at 10 µM was found to be 18% on HDAC1, 46% at HDAC6 (setting [2]), 50% at zebrafish HDAC10 and 61% at HDAC8. The inhibition at 0.1 µM on zebrafish HDAC10 was determined as 9%.
As to `O=C(NO)C1CCN(Cc2ccc(-c3ccccc3)cc2)CC1` [DH35, 1-([1,1′-Biphenyl]-4-ylmethyl)-N-hydroxypiperidine-4-carboxamide], the half-inhibitory concentration (IC50) on TwinStrep-GST-HDAC10 is 1780 nM and 2560 nM. Further, the inhibition at 1 µM on HDAC1 was found to be 5%; on HDAC6 (setting [2]), 11%; on zebrafish HDAC10 it was 24%; at HDAC8 it was 37%. The inhibition at 10 µM at HDAC1 is 35%; on HDAC6 (setting [2]) it was 57%; on zebrafish HDAC10 it was 69%; on HDAC8, 70%. The inhibition at 0.1 µM at zebrafish HDAC10 is 7%.
Turning to `O=C(NO)C1CCN(CC(c2ccccc2)c2ccccc2)CC1` [DH40, 1-(2,2-Diphenylethyl)-N-hydroxypiperidine-4-carboxamide], at TwinStrep-GST-HDAC10, the IC50 was 2320 nM and 2970 nM. The inhibition at 1 µM was -7% on HDAC1, 19% on HDAC6 (setting [2]), 9% on zebrafish HDAC10 and 42% on HDAC8. Besides, the inhibition at 10 µM on HDAC1 was found to be 8%; at HDAC6 (setting [2]), 65%; on zebrafish HDAC10, 27%; at HDAC8, 75%. The inhibition at 50 µM on HDAC1 (at 50 μM) worked out at 24%; on HDAC6 (at 50 μM, read-out: HDAC6 (ZMAL) percent enzyme inhibition) it was 88%. Besides, the inhibition at 0.1 µM at zebrafish HDAC10 was found to be 1%.
In the case of `O=C(NO)C1CCN(CCc2ccc(Br)cc2)CC1` [DH67, 1-(4-Bromophenethyl)-N-hydroxypiperidine-4-carboxamide], the inhibition at 1 µM on HDAC1 was 7%; on HDAC6 (setting [2]) it was -4%; at zebrafish HDAC10 it was 40%; at HDAC8, 33%. Also, the inhibition at 10 µM at HDAC1 was 6%; at HDAC6 (setting [2]), 18%; on zebrafish HDAC10, 67%; on HDAC8 it was 69%. Besides, the inhibition at 0.1 µM at zebrafish HDAC10 turned out to be 7%. The same compound displayed a 50% inhibitory concentration (IC50) in test [1] of 375 nM.
On to `O=C(NO)C1CCN(CCc2cccc(Br)c2)CC1` [DH71, 1-(3-Bromophenethyl)-N-hydroxypiperidine-4-carboxamide], for which the inhibition at 1 µM was -5% at HDAC1, -2% on HDAC6 (setting [2]), 10% at zebrafish HDAC10 and 27% at HDAC8. Further, the inhibition at 10 µM on HDAC1 is 6%; at HDAC6 (setting [2]) it was 28%; on zebrafish HDAC10, 61%; at HDAC8, 70%. The inhibition at 0.1 µM at zebrafish HDAC10 was determined as 0%. Moreover, the IC50 in test [1] stood at 391 nM.
Regarding `O=C(NO)C1CCN(CCNCc2ccc(Br)cc2)CC1` [DH88, 1-(2-((4-Bromobenzyl)amino)ethyl)-N-hydroxypiperidine-4-carboxamide], the inhibition at 1 µM on HDAC1 was -8%. Further, the inhibition at 10 µM on HDAC1 was determined as 10%. In addition, the values for the IC50 against HDAC6, against zebrafish HDAC10 and against HDAC8 were 15000 ± 4000 nM, 37 ± 4 nM and 700 ± 50 nM, respectively.
